# Measurements reported in patent US12083355B1, “Preparation of photodynamic therapy tablet and method for construction and application of anti-tumor model for enhanced cancer treatment” (Sichuan Cancer Hospital, priority 2023, dated 2024).
# Legend:
# Assay in all cases: CCK-8 cell viability assay, anti-tumor model with wireless self-powered photodynamic tablet
# Format in all cases: cell-based
# Conditions in all cases: 10 μM IKE, PDT groups: 8 μM Ce6 6 h, 20 min 660 nm light, CCK-8 after 24 hours
# [1] = system: mouse lung cancer cells LLC
# Method: (§1) This embodiment provides a comprehensive account of constructing an anti-tumor model utilizing the wireless self-powered photodynamic tablet (8), using human lung cancer cells A549 and H1299, as well as mouse lung cancer cells LLC. The experimental procedure involved seeding 8,000 cells per well in a 96-well plate and allowing them to adhere for 24 hours. The cells were divided into four groups: control group (Ctrl), ferroptosis inducer (IKE) group, photodynamic therapy (PDT) group, and combined treatment of IKE and PDT (IKE+PDT) group. The culture medium was then replaced accordingly: the PDT and IKE+PDT groups received 100 μL of serum-free medium containing 8 μM photosensitizer Ce6, while the Ctrl and IKE groups were replaced with serum-free medium. Following this, the cells were incubated for 6 hours under light avoidance conditions (i.e., in the substantial absence of visible light). Subsequently, the culture medium was replaced again: the IKE and IKE+PDT groups received fresh complete medium containing 10 μM IKE, while the Ctrl and PDT groups received complete medium. The PDT and IKE+PDT groups underwent 20 minutes of photodynamic therapy (e.g., with 660 nm light from the photodynamic tablet). After 24 hours of incubation, a cell viability assay was conducted using the CCK-8 reagent kit. Each experiment was repeated three times, and the data were subjected to statistical analysis.
# [2] = system: human lung cancer cells A549
# Method: as §1
# [3] = system: human lung cancer cells H1299
# Method: as §1
compound,measurement,setting,value
CC(C)Oc1ccc(C(=O)Cn2ccnc2)cc1-n1c(CN2CCN(C(=O)COc3ccc(Cl)cc3)CC2)nc2ccccc2c1=O [IKE],decrease in cell viability compared to the control group,[1],30.3%
same,decrease in cell viability compared to the control group,[2],22.4%
same,decrease in cell viability compared to the control group,[3],26.0%
